Molecules are shown by their SMILES. The source made the active and inactive calls.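 How the source made its calls: active means IC50 below 1 nM; inactive means the rest.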 Where only a bound is given, the exact number is not on record here.

For this assay, the system named is HCT116 TERT promoter luciferase reporter, 16 h. In words: TERT promoter activity modulators, dose response, HCT116 cells, human (AID 1259346).
In the case of `Cc1nc2cc(-c3ccc(Br)cc3)nn2c(C)c1CCC(=O)O`, the IC50 – broadly, the concentration that inhibits the measured activity by half – was < 1 nM.
As for `Cc1nc2cc(-c3cccc(Br)c3)nn2c(C)c1CCC(=O)O`, the IC50 was 346 nM (inactive).
Turning to `Cc1nc2cc(-c3ccc(C#CCO)cc3)nn2c(C)c1CCC(=O)O`, the IC50 is 3600 nM (inactive).
To `Cc1nc2cc(-c3ccccc3)nn2c(C)c1CCC(=O)O` belongs 7 nM (inactive).
Regarding `COC(=O)CCc1c(C)nc2cc(-c3ccc(OC)cc3)nn2c1C`, the half-inhibitory concentration (IC50) is < 1 nM.

For the origin of these results see PubChem BioAssay AID1259346.
